{"source": "the supplement of paper PMC10307832", "assay_in_all_cases": "relative viability (nuclei count vs DMSO), 5 days (fraction); higher = more cells survive", "key": {"BI-D1870 + Alpelisib": {"compound": "CC(C)CCN1c2nc(Nc3cc(F)c(O)c(F)c3)ncc2N(C)C(=O)C1C [BI-D1870] + Cc1nc(NC(=O)N2CCC[C@H]2C(N)=O)sc1-c1ccnc(C(C)(C)C(F)(F)F)c1 [Alpelisib] (partner 2 µM)", "summary_of_the_method": "(§1)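 Medians of duplicate plates are given as relative viability. That measure is the nuclei count in treated wells divided by the count in vehicle wells. Counts were taken on 4× images of lung cancer cell lines in 1536-well plates, 5 days after pin-tool dosing the day after seeding with one drug alone or a fixed anchor-drug dose plus five library-drug doses (not always all listed) in √10 steps.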"}, "BI-D1870 + Pictilisib": {"compound": "CC(C)CCN1c2nc(Nc3cc(F)c(O)c(F)c3)ncc2N(C)C(=O)C1C [BI-D1870] + CS(=O)(=O)N1CCN(Cc2cc3nc(-c4cccc5[nH]ncc45)nc(N4CCOCC4)c3s2)CC1 [Pictilisib] (partner 1 µM)", "summary_of_the_method": "as §1"}, "Zebularine": {"compound": "O=c1ncccn1[C@@H]1O[C@H](CO)[C@@H](O)[C@H]1O [Zebularine]", "summary_of_the_method": "(§2)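 Cells of lung cancer lines were placed in 1536-well plates and kept overnight at 37 °C. Pinning then delivered five library-drug doses (not always all listed), spaced by √10, onto plates anchored with vehicle, and the cells were left 5 days without changing medium. One step fixed, permeabilised and stained them with Hoechst, and MetaXpress counted nuclei in 4× images. Viability, as a median over plates, is treated-well nuclei divided by vehicle-well nuclei, with acceptance only at control CV below 25% and at least one doubling.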"}, "BI-D1870": {"compound": "CC(C)CCN1c2nc(Nc3cc(F)c(O)c(F)c3)ncc2N(C)C(=O)C1C [BI-D1870]", "summary_of_the_method": "as §2"}}, "data": [{"cell line": "UMC-11", "values": [{"measurement": "relative viability", "setting": "BI-D1870 + Alpelisib; first compound 0.04 µM", "value": 1.05}, {"measurement": "relative viability", "setting": "BI-D1870 + Alpelisib; first compound 0.1265 µM", "value": 0.935}, {"measurement": "relative viability", "setting": "BI-D1870 + Alpelisib; first compound 0.4 µM", "value": 1}, {"measurement": "relative viability", "setting": "BI-D1870 + Alpelisib; first compound 1.265 µM", "value": 1.05}, {"measurement": "relative viability", "setting": "BI-D1870 + Alpelisib; first compound 4 µM", "value": 1.02}, {"measurement": "relative viability", "setting": "BI-D1870 + Pictilisib; first compound 0.04 µM", "value": 0.908}, {"measurement": "relative viability", "setting": "BI-D1870 + Pictilisib; first compound 0.1265 µM", "value": 0.608}, {"measurement": "relative viability", "setting": "BI-D1870 + Pictilisib; first compound 0.4 µM", "value": 0.759}, {"measurement": "relative viability", "setting": "BI-D1870 + Pictilisib; first compound 1.265 µM", "value": 0.733}, {"measurement": "relative viability", "setting": "BI-D1870 + Pictilisib; first compound 4 µM", "value": 0.316}, {"measurement": "relative viability", "setting": "Zebularine; 1 µM", "value": 1.1}, {"measurement": "relative viability", "setting": "Zebularine; 3.162 µM", "value": 0.824}, {"measurement": "relative viability", "setting": "Zebularine; 10 µM", "value": 0.673}, {"measurement": "relative viability", "setting": "Zebularine; 31.62 µM", "value": 0.653}, {"measurement": "relative viability", "setting": "Zebularine; 100 µM", "value": 0.422}, {"measurement": "relative viability", "setting": "BI-D1870; 0.04 µM", "value": 0.972}, {"measurement": "relative viability", "setting": "BI-D1870; 0.1265 µM", "value": 0.949}, {"measurement": "relative viability", "setting": "BI-D1870; 0.4 µM", "value": 1.04}, {"measurement": "relative viability", "setting": "BI-D1870; 1.265 µM", "value": 1.02}, {"measurement": "relative viability", "setting": "BI-D1870; 4 µM", "value": 0.387}]}]}
